We go through seven molecules from publication PMC4437027, “New ambuic acid derivatives from the solid culture of Pestalotiopsis neglecta and their nitric oxide inhibitory activity” (Scientific Reports, 2015).

Test [1] has as its system NO production in LPS-induced macrophages (RAW 264.7). The experiment in a line: Inhibition of NO production in LPS-induced macrophages (RAW 264.7), nitrite accumulation. The class given is cell-based. To be noted: Mus musculus. The text has this:
Mouse monocyte-macrophages RAW 264.7 (ATCC TIB-71) were purchased from the Chinese Academy of Science. RPMI 1640 medium, penicillin, streptomycin, and fetal bovine serum were purchased from Invitrogen (NewYork, USA). Lipopolysaccharide (LPS), DMSO, 3-(4,5-dimethylthiazol-2-yl)-2,5-diphenyl-2H-tetrazolium bromide (MTT), and hydrocortisone were obtained from Sigma Chemical Co. (Saint Louis, MO, U.S.A). RAW 264.7 cells were kept in RPMI 1640 medium supplemented with penicillin (100 U/mL), streptomycin (100 μg/mL), and 10% heat-inactivated fetal bovine serum at 37°C in a humidified incubator with 5% CO2 and 95% air. RAW 264.7 cells were passaged by trypsinization until they attained confluence and were used for assays during the exponential growth phase.
Compounds 1, 4–8 were dissolved in DMSO and were further diluted with the culture medium to give a final DMSO concentration of 0.2% in the assay. This concentration of DMSO had no significant effect on the growth of the cell line tested. The procedure of NO inhibition assay was conducted as previously reported. The level of NO was assessed by measuring the accumulation of nitrite (NO2^−) using the same method as previously reported. Cytotoxicity was measured using the 3-(4,5-dimethylthiazol-2-yl)-2.5-diphenyltetrazolium bromide (MTT) assay method. The inhibition rate was calculated based on the following equation (1).

The next test relates to Fusarium solani. Also noted: method as in PMID 11261579. The note with it: cited from earlier work.
For a further test, the system named is Diplodia natelensis. Further details: method as in PMID 11261579. To be noted: cited from earlier work.
A further test deals with Pythium ultimum. Also noted: method as in PMID 11261579. To be noted: cited from earlier work.
For the next test, the system named is Helminthosporium sativum. Also noted: method as in PMID 11261579. The note with it: cited from earlier work.
Another test concerns Staphyococcus aureus. Also noted: method as in PMID 19117486. The note with it: Gram-positive bacterium Staphyococcus aureus; cited from earlier work.
A further test has as its system Fusarium cubense. Further details: method as in PMID 11261579. To be noted: cited from earlier work.
Test [2] relates to biosynthesis of cyclic peptide quormones in Enterococcus faecalis. The note with it: Gram-positive bacteria Enterococcus faecalis; cited from earlier work.
For another test, the system named is Cephalosporium gramineum. Also noted: method as in PMID 11261579. The note with it: cited from earlier work.
Where [3] appears, read: RAW264.7, LPS-induced RAW 264.7 macrophages, read-out: NO inhibitory activity (IC50).

Read-outs that look alike come from different tables or passages of the source.

In the case of `CC(=CCC12OC1C(O)C(CO)=C(C=CCCCC(C)O)C2=O)C(=O)O` (stereo not drawn) [Compound 1], the IC50 in [1] (setting [3]) is above 100 µM.

With `CCCCC/C=C/C1=C(COC(C)=O)[C@@H](O)[C@H]2O[C@@]2(C/C=C(\C)C(=O)O)[C@H]1O` [Compound 4], in test [1] (setting [3]), the IC50 was 88.7 ± 6.74 µM.

Turning to `CCCCC/C=C/C1=C(CO)[C@@H](O)[C@H]2O[C@@]2(C/C=C(\C)C(=O)O)[C@H]1O` [Compound 5], the IC50 in test [1] (setting [3]) is above 100 µM.

Turning to `CCCCC/C=C/C1=C(COC(C)=O)[C@@H](O)[C@H]2O[C@@]2(C/C=C(\C)C(=O)O)C1=O` [Compound 6], in [1] (setting [3]), the IC50 is 11.2 ± 0.79 µM.

Regarding `CCCCC/C=C/C1=C(CO)[C@H](O)[C@H]2O[C@@]2(C/C=C(\C)C(=O)O)C1=O` [Compound 7, Ambuic acid], the Antifungal effect result in the test on Fusarium solani, in the test on Diplodia natelensis, in the test on Pythium ultimum, in the test on Helminthosporium sativum, with Fusarium cubense and with Cephalosporium gramineum was “moderate antifungal effects” throughout. For the same molecule, the Antimicrobial effect entry in the test on Staphyococcus aureus is recorded as “antimicrobial”. For the same molecule, in test [2], the “Inhibition of biosynthesis of cyclic peptide quormones” value is “inhibits the biosynthesis of cyclic peptide quormones”. Besides, the IC50 in [1] (setting [3]) is 20.8 ± 1.41 µM.

Consider `CCCCC/C=C/C1=C(CO)C(=O)C[C@](O)(C/C=C(\C)C(=O)O)[C@H]1O` [Compound 8], for which the concentration for half-maximal inhibition (IC50) in [1] (setting [3]) was above 100 µM.

As for `C[C@]12CCC(=O)C=C1CC[C@@H]1[C@@H]2[C@@H](O)C[C@@]2(C)[C@H]1CC[C@]2(O)C(=O)CO` [Hydrocortisone, hydrocortisone, reference compound], the concentration for half-maximal inhibition (IC50) in test [1] (RAW264.7, read-out: NO inhibitory activity (IC50)) is 53.7 ± 3.86 µM.

For orientation: IC50 means the concentration needed to halve the response being measured.
